Test results reported in US5250735A, “2-(N-substituted-aminoalkyl)-5-(E)-alkylidene cyclopentanones, 2-(N-substituted-aminoalkyl)-5-(E)-arylalkylidene cyclopentanones, and derivatives thereof” (priority 1992, dated 1993).
Structures can show the parent of a compound that is named as a salt.

Tests used:
[1] = tested on: 60 human tumor cell lines; details: 5-fluorouracil comparison value; cited from earlier work
[2] = literature; cited from earlier work
[3] = literature; cited from earlier work; remark: listed apart in the source
[4] = tested on: acetic acid induced mouse writhes; assay: Acetic acid induced mouse writhes (analgesic activity); assay type: in vivo, mice; details: oral
Method: Analgesic activity was evaluated by a procedure similar to that described by Koster et al. [R. Koster, et al., Fed. Proc., 18, 412 (1959)]. About one hour after oral administration of test compounds to mice, 0.1 ml/10 g body weight of acetic acid was intraperitoneally injected. About five minutes later, the number of writhes of each mouse was counted for a period of about 20 minutes. The analgesic effect was manifested as a reduction in the number of writhes. "Compound numbers" refer to compounds whose synthesis is illustrated in the corresponding Example number. The P values are the results of T-tests, which are well known to those skilled in the art.

[5] = tested on: 60 human tumor cell lines; assay: National Cancer Institute in vitro tumor cell screen; assay type: cell-based; design: key to Differential Cellular Sensitivity GI50, tumor cell line subpanels / Differential Cellular Sensitivity LC50, tumor cell line subpanels / Differential Cellular Sensitivity TGI, tumor cell line subpanels: LEU: Leukemia/lymphoma; LNS: Nonsmall cell lung; COL: Colon; MEL: Melanoma; OVA: Ovary; REN: Kidney; SCL: Small cell lung; details: for GI50 / IC100 / LC50: Homo sapiens, molar concentration, mean of all cell lines; for GI50: 50% inhibition of cell proliferation, read-out: Mean response of all cell lines (Log) GI50 (converted); for IC100: 100% inhibition of cell proliferation, read-out: Mean response of all cell lines (Log) TGI (converted); for Differential Cellular Sensitivity GI50, tumor cell line subpanels: subpanels for GI50; for Differential Cellular Sensitivity LC50, tumor cell line subpanels: subpanels for LC50; for Differential Cellular Sensitivity TGI, tumor cell line subpanels: subpanels for TGI; for LC50: 50% of cell population killed, read-out: Mean response of all cell lines (Log) LC50 (converted)
Method: In the assay, a candidate compound was tested for its ability to inhibit tumor cell growth. A dose response curve of percent cell growth versus compound concentration over a concentration range of 10^-9 to 10^-4 molar of each test compound was established to determine GI50, TGI and LC50. GI50 and TGI denote that cell proliferation was inhibited by 50% and 100% respectively. LC50 denotes that 50% of cell population was killed. The selectivity of a compound towards a certain type of tumor cell line was evaluated from mean graphs which compared the relative drug concentrations required to produce the same level of response (e.g. GI50) in each cell line. A differential cellular sensitivity index was calculated by taking the difference between the logarithm of GI50 (or TGI, LC50) value for a cell line versus the arithmetic mean of the logarithm of GI50 (or TGI, LC 50) value for all cell line responses measured for a given compound.

[6] = tested on: Ehrlich ascites carcinoma; assay: Antitumor effect on Ehrlich ascites carcinoma, survival; assay type: in vivo, ICR mice; details: 20 mg/kg/day intraperitoneal, 9 days
Method: Antitumor effect was measured on Ehrlich ascites carcinoma. Ehrlich ascites carcinoma cells were intraperitoneally administered to ICR mice. After 24 hours, 20 mg/kg/day of the compound whose synthesis is illustrated in Example 1 and Example 2 were each administered to the mice by intraperitoneal route for 9 days. The periods of survival of these animals were examined.

[7] = tested on: carrageenin-induced rat paw edema; assay: Carrageenin-induced rat paw edema (anti-inflammatory activity); assay type: in vivo, Wistar rats; details: paw volume at about 3 hours
Method: Anti-inflammatory activity was evaluated by examining the inhibitory activity of candidate compounds on carrageenin-induced rat paw edema according to a literature procedure [C. A. Winter, et al., Proc. Soc. Exp. Biol. Med. 111, 544 (1962)]. Test compounds were orally administered about 1 hour or subcutaneously injected about 0.5 hours before the injection of 100 microliters of a 1% suspension of carrageenin in saline into the subcutaneous tissues of the right hind paw of Wistar rats. The paw volumes were measured about 3 hours after carrageenin injection. The paw volumes were compared with that of a control group to give the percentage of inflammation inhibition. The results of these tests are shown in Table I. "Compound numbers" refer to compounds whose synthesis is illustrated in the corresponding Example number. The P values are the results of T-tests, which are well known to those skilled in the art.

[8] = 50.0 mg/kg sc, about 0.5 hours before carrageenin
[9] = 25.0 mg/kg sc, about 0.5 hours before carrageenin
[10] = 96.0 mg/kg po, about 1 hour before carrageenin

Row | SMILES | GI50 [5] [µM] | IC100 [5] [µM] | Differential Cellular Sensitivity GI50, tumor cell line subpanels [5] | Differential Cellular Sensitivity LC50, tumor cell line subpanels [5] | Differential Cellular Sensitivity TGI, tumor cell line subpanels [5] | LC50 [5] [µM] | further results
1 | O=c1[nH]cc(F)c(=O)[nH]1 [5-fluorouracil] | – | – | – | – | – | – | mean log LC50 [1]: -3.5
2 | C=C1C(=O)O[C@H]2C[C@@H](C)[C@@H]3C=CC(=O)[C@@]3(C)C[C@H]12 [Aromaticin] | – | – | – | – | – | – | anti-inflammatory activity (in words) [2]: potent; anticancer activity (in words) [3]: potent
3 | CC(=O)Oc1ccccc1C(=O)O [Aspirin, reference compound] | – | – | – | – | – | – | Inhibition of acetic acid induced mouse writhes ([4]; 100 mg/kg): 46.7%; Inhibition of acetic acid induced mouse writhes ([4]; 200 mg/kg): 64.0%
4 | CCCCCCC/C=C1\CCC(CN(C)C)C1=O.Cl (centres unmarked) [Compound 2, 2-Dimethylaminomethyl-5-(E)-octylidene cyclopentanone hydrochloride] | 5.13 | 12.3 | LEU;COL | COL;LNS;REN | COL;REN | – | average number of days of survival [6]: 33 ± 8.2 days; increase of life span (ILS %) over the control [6]: 112.0%; ratio of survival for more than 40 days [6]: 3/9
5 | CC(C)=C1CCC(CN(C)C)C1=O.Cl (centres unmarked) [Compound 3, 2-Dimethylaminomethyl-5-(1-methylethylidene) cyclopentanone hydrochloride] | 19.1 | 40.7 | LEU | SCL | COL;LEU | 67.6 | –
6 | CCOC(=O)COc1ccccc1/C=C1\CCC(CN(C)C)C1=O.Cl (centres unmarked) [Compound 4, 2-Dimethylaminomethyl-5-(E)-(2-ethoxycarbonylmethoxyl-benzylidene) cyclopentanone hydrochloride] | 6.31 | 15.8 | LEU | CNS;LNS;MEL | LEU | – | –
7 | CC(/C=C1\CCC(CN(C)C)C1=O)c1cccc(Br)c1.Cl (centres unmarked) [Compound 5, 2-Dimethylaminomethyl-5-(E)-[2-(3-bromophenyl)propylidene] cyclopentanone hydrochloride] | 12.6 | 27.5 | LEU | CNS;OVA | LEU | 63.1 | –
8 | CN(C)CC1CC/C(=C\c2ccccc2)C1=O.Cl (centres unmarked) [Compound 6, 2-Dimethylaminomethyl-5-(E)-benzylidene cyclopentanone hydrochloride] | – | – | – | – | – | – | Inhibition of carrageenin induced rat paw edema [7, 8]: 77.4%
9 | COc1ccccc1/C=C1\CCC(CN(C)C)C1=O.Cl (centres unmarked) [Compound 7, 2-Dimethylaminomethyl-5-(E)-[(2-methoxy)benzylidene] cyclopentanone hydrochloride] | 6.31 | 15.8 | LEU | COL | COL | 39.8 | Inhibition of carrageenin induced rat paw edema ([7]; 12.5 mg/kg sc, about 0.5 hours before carrageenin): 44.2%; Inhibition of carrageenin induced rat paw edema [7, 9]: 70.3%; Inhibition of carrageenin induced rat paw edema [7, 8]: 95.8%
10 | CN(C)CC1CC/C(=C\c2ccc(O)cc2)C1=O.Cl (centres unmarked) [Compound 8, 2-Dimethylaminomethyl-5-(E)-[(4-hydroxy)benzylidene] cyclopentanone hydrochloride] | 4.27 | 10.7 | COL;LEU | CNS;REN;SCL | LEU | – | Inhibition of carrageenin induced rat paw edema [7, 8]: 95.9%
11 | O=C1/C(=C/c2ccc(O)cc2)CCC1CNc1ccc(Cl)cc1 (centres unmarked) [Compound 9, 2-[(4-Chlorophenyl)aminomethyl]-5-(E)-[(4-hydroxy)benzylidene] cyclopentanone] | 3.16 | 10 | COL;LEU;SCL | COL | LEU;SCL | 30.9 | –
12 | COc1ccccc1/C=C1\CCC(CN2CCOCC2)C1=O.Cl (centres unmarked) [Compound 10, 2-Morpholinomethyl-5-(E)-[(2-methoxy)benzylidene]cyclopentanone hydrochloride] | 7.94 | 19.5 | LEU;COL | MEL;REN;OVA | LEU | 52.5 | –
13 | COc1ccccc1/C=C1\CCC(Cc2ccccc2)(CN(C)C)C1=O.Cl (centres unmarked) [Compound 11, 2-Benzyl-2-dimethylaminomethyl-5-(E)-[(2-methoxy)benzylidene] cyclopentanone hydrochloride] | 2.19 | 25.1 | LEU;COL | COL | LEU | 83.2 | Inhibition of carrageenin induced rat paw edema [7, 10]: 52.2%; Inhibition of acetic acid induced mouse writhes ([4]; 96 mg/kg): 41.7%
14 | COc1ccc(/C=C2\CCC(Cc3ccccc3)(CN(C)C)C2=O)cc1.Cl (centres unmarked) [Compound 12, 2-Benzyl-2-dimethylaminomethyl-5-(E)-[(4-methoxy)benzylidene] cyclopentanone hydrochloride] | 35.5 | 77.6 | COL;MEL | SCL | LEU;SCL | – | Inhibition of carrageenin induced rat paw edema [7, 10]: 57.3%; Inhibition of acetic acid induced mouse writhes ([4]; 48 mg/kg): 45.6%; Inhibition of acetic acid induced mouse writhes ([4]; 96 mg/kg): 86.6%
15 | CN(C)CCC1(C2=CCCC2)CC/C(=C\c2ccc(Cl)cc2)C1=O (centres unmarked) [Compound 13, 2-(1-Cyclopenten-1-yl)-2-dimethylaminoethyl-5-(E)-[(4-chloro)benzylidene]cyclopentanone hydrochloride] | 7.08 | 19.1 | MEL | MEL | MEL | 44.7 | –
16 | C=C1C(=O)O[C@@H]2C[C@@H](C)[C@@H]3C=CC(=O)[C@@]3(C)[C@@H](O)[C@H]12 [Helenalin] | – | – | – | – | – | – | anti-inflammatory activity (in words) [2]: potent; anticancer activity (in words) [3]: potent
17 | CC(C)Cc1ccc(C(C)C(=O)O)cc1 (centres unmarked) [Ibuprofen, reference compound] | – | – | – | – | – | – | Inhibition of carrageenin induced rat paw edema [7, 9]: 72.9%; Inhibition of carrageenin induced rat paw edema ([7]; 52.0 mg/kg po, about 1 hour before carrageenin): 54.9%
18 | C[C@@H]1C[C@@H]2OC(=O)[C@]3(C)[C@H]2[C@@H](OC3(C)O)[C@]2(C)C(=O)C=C[C@@H]12 (some centres unmarked) [Tenulin] | – | – | – | – | – | – | anti-inflammatory activity (in words) [2]: potent; anticancer activity (in words) [3]: potent
